# Measured values published in patent US20060094722A1 (Eisai Co., Ltd., priority 2002, published 2006).
# “And” between values parts separate entries of the source, which are not always exact repeats. Equal values may be shown once. Read-outs that look alike come from different tables or passages of the source.
# How the values were obtained:
# [1] = tested on: DPPIV-intact normal male Fisher rats; test: Influences of metformin and DPPIV inhibitors (Examples 82, 119, 120, 122, 229, 267), singly or in combination, on GLP-1 level in normal rats; format: in vivo, rat
# Description: Animals: DPPIV-Intact Normal Male Fisher Rats (Purchased from CLEA Japan, Inc.)
# 250 μL of blood was collected from the rat using a heparinized capillary and transferred into a centrifugation tube.
# [2] = tested on: Zucker fa/fa rats; conditions: for Blood glucose level at each time point (hr) after oral glucose administration / GLP-1 concentration at each time point (hr) after oral glucose administration (% of Pre) / Insulin concentration at each time point (hr) after oral glucose administration: 300 mg/kg p.o. 0.5 hour before glucose load
# Description: (§1) Animals: Zucker fa/fa Rats, an Animal Model for TypeII Diabetes (Purchased from Charles River Japan, Inc.)
# (§2) Each test compound was dissolved in distilled water at the doses shown in the Tables indicated below, and then administered orally at a volume of 5 mL/kg. The vehicle control group was orally administered distilled water at a volume of 5 mL/kg. […] The rats were tested for glucose tolerance on the first day of the administration series. In the test, distilled water and the test compounds were given 0.5 hour before glucose load.
# For the glucose tolerance test, an unanesthetized rat was lightly cut at the caudal vein with a razor blade and bled immediately before the administration of a test compound or distilled water, and immediately before, and at 0.5, 1, 2, and 3 hours after glucose load. 250 μL of blood was collected from the rat using a heparinized capillary and transferred into a centrifugation tube. The supernatant obtained by centrifugation (at 10000 g at 4° C. for 2 minutes) was assayed for active GLP-1 level using Active GLP-1 ELISA kit (Linco). At the same time, 10 μL of blood was collected and mixed with 140 μL of a 0.6 M perchloric acid solution. The mixture was centrifuged (at 3000 g at 4° C. for 10 minutes), and the resulting supernatant was assayed for glucose using Glucose Test Wako II (Wako Pure Chemical Industries, Inc.). The level of blood glucose alone was determined at the time of measurement 3 hours after glucose load.
# [3] = tested on: Zucker fa/fa rats; conditions: 300 mg/kg p.o. twice daily for 14 days
# Description: as §1, §2
# Food intake and body weight were determined at 4:00 p.m after the 14-day administration series. Total food intake and weight gain over 14 days were determined for each experimental group.
# [4] = tested on: DPPIV-deficient male Fisher rats; test: Influence of metformin on the level of GLP-2 in DPPIV-deficient rats; format: in vivo, rat; conditions: 300 mg/kg p.o.; for GLP-2 concentration at each time point (hr) after oral administration (ng/ml): listed as metformin
# Description: Animals: DPPIV-Deficient Male Fisher Rats (Purchased from Charles River Japan, Inc.)
# The test compound was suspended in a solution of 0.5% methyl cellulose at the dose indicated in Table 11, and then administered orally at a volume of 5 mL/kg. The vehicle control group was orally administered an aqueous solution of 0.5% methyl cellulose at a volume of 5 mL/kg.
# An unanesthetized rat was lightly cut at the caudal vein with a razor blade and bled immediately before, and at 1, 3, and 5 hours after administration of a test compound or a solution of 0.5% methyl cellulose. 250 μL of blood was collected from the rat using a heparinized capillary and transferred into a centrifugation tube. The supernatant obtained by centrifugation (at 10000 g at 4° C. for 2 minutes) was assayed for GLP-2 level using GLP-2 ELISA kit (Yanaihara Institute Inc.).
# [5] = tested on: DPPIV-deficient male Fisher rats
# Description: Animals: DPPIV-deficient male Fisher rats (purchased from Charles River Japan, Inc.)
# Each test compound was suspended in a solution of 0.5% methyl cellulose at the doses indicated in Table 2, and then administered orally at a volume of 5 mL/kg. The vehicle control group was orally administered a solution of 0.5% methyl cellulose at a volume of 5 mL/kg.
# An unanesthetized rat was lightly cut at the caudal vein with a razor blade and bled immediately before, and at 1, 3, and 5 hours after the administration of a test compound or a solution of 0.5% methyl cellulose. 250 μL of blood was collected from the rat using a heparinized capillary and transferred into a centrifugation tube. The supernatant obtained by centrifugation (at 10000 g at 4° C. for 2 minutes) was assayed for GLP-1 level using Active GLP-1 ELISA kit (Linco).
# [6] = tested on: DPPIV-intact normal male Fisher rats; conditions: for GLP-1 concentration at each time point (hr) after oral administration (% of Pre): 300 mg/kg p.o.
# Description: Each test compound was suspended in a solution of 0.5% methyl cellulose at the doses indicated in Table 3, and then administered orally at a volume of 5 mL/kg. The vehicle control group was orally administered a solution of 0.5% methyl cellulose at a volume of 5 mL/kg.
# An unanesthetized rat was lightly cut at the caudal vein with a razor blade and bled immediately before, and at 1, 3, and 5 hours after administration of a test compound or a solution of 0.5% methyl cellulose. 250 μL of blood was collected from the rat using a heparinized capillary and transferred into a centrifugation tube. The supernatant obtained by centrifugation (at 10000 g at 4° C. for 2 minutes) was assayed for GLP-1 level using Active GLP-1 ELISA kit (Linco).
# [7] = tested on: BALB/c AnCrj mice; conditions: 300 mg/kg p.o. twice a day, 5-FU treatment 60 mg/kg for 3 days, mice
# Description: Animals: BALB/c AnCrj Mice (Purchased from Charles River Japan, Inc.)
# 5-FU (purchased from Sigma) was suspended in a solution of 0.5% methyl cellulose, and then administered orally at a volume of 10 mL/kg/day (8 a.m. to 9 a.m.) for 3 days (60 mg/kg). […] The vehicle control group was orally administered a solution of 0.5% methyl cellulose at a volume of 10 mL/kg.
# Mice were fasted for 18 hours following the afternoon administration on the third day of the administration series. On the following day, the mice were killed by cervical dislocation, and then the whole small intestine was excised and the wet weight was measured.
structure (smiles),measurement,setting,value
"CN(C)C(=N)N=C(N)N [Metformin, metformin]",GLP-1 concentration 3 hours after oral administration (% of Pre),"[1]; 300 mg/kg p.o., 3 hours",118.1 ± 7.5 % of Pre and 108.6 ± 2.2 % of Pre and 112.5 ± 2.4 % of Pre
same,level of active GLP-1,[1]; 3 hours after administration,no increase
same,level of active GLP-1 during the glucose tolerance test,[2],no significant increase
same,level of insulin during the glucose tolerance test,[2],no significant increase
same,Blood glucose level at each time point (hr) after oral glucose administration,[2]; 0 hr,117.4 ± 5.5 mg/dL
same,GLP-1 concentration at each time point (hr) after oral glucose administration (% of Pre),[2]; 0 hr,105.6 ± 1.7 % of Pre
same,Insulin concentration at each time point (hr) after oral glucose administration,[2]; 0 hr,14.0 ± 1.1 ng/mL
same,Blood glucose level at each time point (hr) after oral glucose administration,[2]; 0.5 hr,160.6 ± 9.7 mg/dL
same,GLP-1 concentration at each time point (hr) after oral glucose administration (% of Pre),[2]; 0.5 hr,135.4 ± 7.6 % of Pre
same,Insulin concentration at each time point (hr) after oral glucose administration,[2]; 0.5 hr,22.9 ± 2.5 ng/mL
same,Blood glucose level at each time point (hr) after oral glucose administration,[2]; 1 hr,177.5 ± 10.6 mg/dL
same,GLP-1 concentration at each time point (hr) after oral glucose administration (% of Pre),[2]; 1 hr,126.0 ± 8.9 % of Pre
same,Insulin concentration at each time point (hr) after oral glucose administration,[2]; 1 hr,21.2 ± 2.3 ng/mL
same,Blood glucose level at each time point (hr) after oral glucose administration,[2]; 2 hr,159.8 ± 8.6 mg/dL
same,GLP-1 concentration at each time point (hr) after oral glucose administration (% of Pre),[2]; 2 hr,118.4 ± 6.5 % of Pre
same,Insulin concentration at each time point (hr) after oral glucose administration,[2]; 2 hr,16.9 ± 1.6 ng/mL
same,Blood glucose level at each time point (hr) after oral glucose administration,[2]; 3 hr,122.4 ± 3.7 mg/dL
same,Blood glucose level at each time point (hr) after oral glucose administration,[2]; −0.5 hr,108.9 ± 5.6 mg/dL
same,GLP-1 concentration at each time point (hr) after oral glucose administration (% of Pre),[2]; −0.5 hr,100.0 ± 0.0 % of Pre
same,Insulin concentration at each time point (hr) after oral glucose administration,[2]; −0.5 hr,11.9 ± 1.1 ng/mL
same,glucose tolerance,[2]; glucose tolerance test,improved
same,Total food intake for 14 days,[3],495.1 ± 8.9 g
same,Weight gain for 14 days,[3],64.5 ± 3.5 g
same,GLP-2 concentration at each time point (hr) after oral administration,[4]; 0 hr,1.32 ± 0.02 ng/mL
same,GLP-2 concentration at each time point (hr) after oral administration,[4]; 1 hr,1.65 ± 0.06 ng/mL
same,GLP-2 concentration at each time point (hr) after oral administration (ng/ml),[4]; 1 hr,significantly elevated
same,GLP-2 concentration at each time point (hr) after oral administration,[4]; 3 hr,2.08 ± 0.07 ng/mL
same,GLP-2 concentration at each time point (hr) after oral administration (ng/ml),[4]; 3 hr,significantly elevated
same,GLP-2 concentration at each time point (hr) after oral administration,[4]; 5 hr,2.15 ± 0.05 ng/mL
same,GLP-2 concentration at each time point (hr) after oral administration (ng/ml),[4]; 5 hr,significantly elevated
same,GLP-1 concentration at each time point (hr) after oral administration (% of Pre),"[5]; 30 mg/kg p.o., 0 hr",100 ± 0.0 % of Pre
same,GLP-1 concentration at each time point (hr) after oral administration (% of Pre),"[5]; 30 mg/kg p.o., 1 hr",99.9 ± 3.7 % of Pre
same,GLP-1 concentration at each time point (hr) after oral administration (% of Pre),"[5]; 30 mg/kg p.o., 3 hr",106.6 ± 5.0 % of Pre
same,GLP-1 concentration at each time point (hr) after oral administration (% of Pre),"[5]; 30 mg/kg p.o., 5 hr",116.3 ± 2.7 % of Pre
same,GLP-1 concentration at each time point (hr) after oral administration (% of Pre),"[5]; 100 mg/kg p.o., 0 hr",100 ± 0.0 % of Pre
same,GLP-1 concentration at each time point (hr) after oral administration (% of Pre),"[5]; 100 mg/kg p.o., 1 hr",111.6 ± 7.9 % of Pre
same,GLP-1 concentration at each time point (hr) after oral administration (% of Pre),"[5]; 100 mg/kg p.o., 3 hr",116.3 ± 8.2 % of Pre
same,GLP-1 concentration at each time point (hr) after oral administration (% of Pre),"[5]; 100 mg/kg p.o., 5 hr",150.6 ± 7.2 % of Pre
same,GLP-1 concentration at each time point (hr) after oral administration (% of Pre),"[5]; 300 mg/kg p.o., 0 hr",100 ± 0.0 % of Pre
same,GLP-1 concentration at each time point (hr) after oral administration (% of Pre),"[5]; 300 mg/kg p.o., 1 hr",140.0 ± 11.5 % of Pre
same,GLP-1 concentration at each time point (hr) after oral administration (% of Pre),"[5]; 300 mg/kg p.o., 3 hr",199.3 ± 32.4 % of Pre
same,GLP-1 concentration at each time point (hr) after oral administration (% of Pre),"[5]; 300 mg/kg p.o., 5 hr",227.1 ± 35.5 % of Pre
same,GLP-1 concentration at each time point (hr) after oral administration (% of Pre),"[5]; 300 mg/kg p.o., 5 hr, listed as metformin",significantly elevated
same,GLP-1 concentration at each time point (hr) after oral administration (% of Pre),[6]; 0 hr,100 ± 0.0 % of Pre
same,GLP-1 concentration at each time point (hr) after oral administration (% of Pre),[6]; 1 hr,117 ± 9 % of Pre
same,GLP-1 concentration at each time point (hr) after oral administration (% of Pre),[6]; 3 hr,149 ± 24 % of Pre
same,GLP-1 concentration at each time point (hr) after oral administration (% of Pre),[6]; 5 hr,94 ± 10 % of Pre
same,level of active GLP-1,[6]; given singly,no increase
same,Wet weight of small intestine,[7],0.642 ± 0.017 g
same,Wet weight of small intestine (g),[7]; listed as metformin,no alteration
